Reference: patent publication US12655125B2 (SIRONAX LTD., priority 2020, dated 2026)

Tested on: HT-29 cells
Assay: HT29 Cells 0FBS Assay In Vitro (TNF-α/SMAC mimetic/zVAD-FMK induced necroptosis, CellTiter-Glo cell viability)
Type: cell-based
Settings: Homo sapiens, HT-29, 20 h, read-out: Cell activity (EC50) of Compounds 117-281
In short: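 Viability was measured by ATP luminescence (CellTiter-Glo) after 20 h at 37° C of compound exposure in 10-point, 1:3 dilutions. Necroptosis in FBS-free HT-29 cultures was driven by a TNF-α (10 ng/ml), SMAC mimetic (6 μM) and zVAD-FMK (10 μM) cocktail. EC50 values are geometric means from duplicate curves.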

SMILES	EC50 [nM]
CC(=O)Nc1cc(-c2cc(OC3CN(C(=O)N4N=CC[C@H]4c4cc(F)cc(F)c4)C3)c(F)cn2)n(C)n1 [compound 135]	0.1 to 100

Same assay, conditions: Homo sapiens; HT-29 cells, FBS free medium, TNF-α (10 ng/ml), SMAC mimetic (6 uM), zVAD-FMK (10 μM), 20 hours; geometric mean EC50; read-out: Cell activity (EC50) of Compounds 117-281

SMILES	EC50 [nM]
Cc1nsc(C)c1-c1cc(OC2CN(C(=O)N3N=CC[C@H]3c3cc(F)cc(F)c3)C2)c(F)cn1 [compound 127, (S)-(5-(3,5-difluorophenyl)-4,5-dihydro-1H-pyrazol-1-yl)(3-((2-(3,5-dimethylisothiazol-4-yl)-5-fluoropyridin-4-yl)oxy)azetidin-1-yl)methanone]	0.1 to 100
CCOC(=O)c1c(C)cc(C)n1-c1cc(OC2CN(C(=O)N3N=CC[C@H]3c3cc(F)cc(F)c3)C2)c(F)cn1 [compound 128, Ethyl (S)-1-(4-((1-(5-(3,5-difluorophenyl)-4,5-dihydro-1H-pyrazole-1-carbonyl)azetidin-3-yl)oxy)-5-fluoropyridin-2-yl)-3,5-dimethyl-1H-pyrrole-2-carboxylate]	0.1 to 100
COC(=O)c1cc(C)n(-c2cc(OC3CN(C(=O)N4N=CC[C@H]4c4cc(F)cc(F)c4)C3)c(F)cn2)c1C [compound 129, methyl (S)-1-(4-((1-(5-(3,5-difluorophenyl)-4,5-dihydro-1H-pyrazole-1-carbonyl)azetidin-3-yl)oxy)-5-fluoropyridin-2-yl)-2,5-dimethyl-1H-pyrrole-3-carboxylate]	0.1 to 100
Cc1nn(C2COC2)c(C)c1-c1cc(OC2CN(C(=O)N3N=CC[C@H]3c3cc(F)cc(F)c3)C2)c(F)cn1 [compound 130, (S)-(5-(3,5-difluorophenyl)-4,5-dihydro-1H-pyrazol-1-yl)(3-((2-(3,5-dimethyl-1-(oxetan-3-yl)-1H-pyrazol-4-yl)-5-fluoropyridin-4-yl)oxy)azetidin-1-yl)methanone]	0.1 to 100
Cc1nn(C2CNC2)c(C)c1-c1cc(OC2CN(C(=O)N3N=CC[C@H]3c3cc(F)cc(F)c3)C2)c(F)cn1 [compound 131, (S)-(3-((2-(1-(azetidin-3-yl)-3,5-dimethyl-11H-pyrazol-4-yl)-5-fluoropyridin-4-yl)oxy)azetidin-1-yl)(5-(3,5-difluorophenyl)-4,5-dihydro-1H-pyrazol-1-yl)methanone]	0.1 to 100
Cc1nn(CC2CC2)c(C)c1-c1cc(OC2CN(C(=O)N3N=CC[C@H]3c3cc(F)cc(F)c3)C2)c(F)cn1 [compound 132, (S)-(3-((2-(1-(cyclopropylmethyl)-3,5-dimethyl-1H-pyrazol-4-yl)-5-fluoropyridin-4-yl)oxy)azetidin-1-yl)(5-(3,5-difluorophenyl)-4,5-dihydro-1H-pyrazol-1-yl)methanone]	0.1 to 100
CC(C)NC(=O)c1cnn(C)c1-c1cc(OC2CN(C(=O)N3N=CC[C@H]3c3cc(F)cc(F)c3)C2)c(F)cn1 [compound 133, (S)-5-(4-((1-(5-(3,5-difluorophenyl)-4,5-dihydro-1H-pyrazole-1-carbonyl)azetidin-3-yl)oxy)-5-fluoropyridin-2-yl)-N-isopropyl-1-methyl-1H-pyrazole-4-carboxamide]	0.1 to 100
Cn1ncc(C(=O)NC2CC2)c1-c1cc(OC2CN(C(=O)N3N=CC[C@H]3c3cc(F)cc(F)c3)C2)c(F)cn1 [compound 134, (S)—N-cyclopropyl-5-(4-((1-(5-(3,5-difluorophenyl)-4,5-dihydro-1H-pyrazole-1-carbonyl)azetidin-3-yl)oxy)-5-fluoropyridin-2-yl)-1-methyl-1H-pyrazole-4-carboxamide]	0.1 to 100
CC(=O)N(C(C)=O)c1cc(-c2cc(OC3CN(C(=O)N4N=CC[C@H]4c4cc(F)cc(F)c4)C3)c(F)cn2)n(C)n1 [compound 136, (S)—N-acetyl-N-(5-(4-((1-(5-(3,5-difluorophenyl)-4,5-dihydro-1H-pyrazole-1-carbonyl)azetidin-3-yl)oxy)-5-fluoropyridin-2-yl)-1-methyl-1H-pyrazol-3-yl)acetamide]	0.1 to 100
Cn1nc(NC(=O)C2CC2)cc1-c1cc(OC2CN(C(=O)N3N=CC[C@H]3c3cc(F)cc(F)c3)C2)c(F)cn1 [compound 137, (S)—N-(5-(4-((1-(5-(3,5-difluorophenyl)-4,5-dihydro-1H-pyrazole-1-carbonyl)azetidin-3-yl)oxy)-5-fluoropyridin-2-yl)-1-methyl-1H-pyrazol-3-yl)cyclopropanecarboxamide]	0.1 to 100
Cc1nn(-c2cc(OC3CN(C(=O)N4N=CC[C@H]4c4cc(F)cc(F)c4)C3)c(F)cn2)c(C)c1NC(=O)C1CCOCC1 [compound 138]	0.1 to 100
Cc1nn(-c2cc(OC3CN(C(=O)N4N=CC[C@H]4c4cc(F)cc(F)c4)C3)c(F)cn2)c(C)c1NC(=O)C1CC1 [compound 139, (S)—N-(1-(4-((1-(5-(3,5-difluorophenyl)-4,5-dihydro-1H-pyrazole-1-carbonyl)azetidin-3-yl)oxy)-5-fluoropyridin-2-yl)-3,5-dimethyl-1H-pyrazol-4-yl)cyclopropanecarboxamide]	0.1 to 100
CC(=O)Nc1c(C)nn(-c2cc(OC3CN(C(=O)N4N=CC[C@H]4c4cc(F)cc(F)c4)C3)c(F)cn2)c1C [compound 140, (S)—N-(1-(4-((1-(5-(3,5-difluorophenyl)-4,5-dihydro-1H-pyrazole-1-carbonyl)azetidin-3-yl)oxy)-5-fluoropyridin-2-yl)-3,5-dimethyl-1H-pyrazol-4-yl)acetamide]	0.1 to 100
CC(C)NC(=O)Nc1cnn(C)c1-c1cc(OC2CN(C(=O)N3N=CC[C@H]3c3cc(F)cc(F)c3)C2)c(F)cn1 [compound 141, (S)-1-(5-(4-((1-(5-(3,5-difluorophenyl)-4,5-dihydro-1H-pyrazole-1-carbonyl)azetidin-3-yl)oxy)-5-fluoropyridin-2-yl)-1-methyl-1H-pyrazol-4-yl)-3-isopropylurea]	0.1 to 100
CNC(=O)Nc1cnn(C)c1-c1cc(OC2CN(C(=O)N3N=CC[C@H]3c3cc(F)cc(F)c3)C2)c(F)cn1 [compound 142, (S)-1-(5-(4-((1-(5-(3,5-difluorophenyl)-4,5-dihydro-1H-pyrazole-1-carbonyl)azetidin-3-yl)oxy)-5-fluoropyridin-2-yl)-1-methyl-11H-pyrazol-4-yl)-3-methylurea]	0.1 to 100
Cc1ncc(C#N)n1-c1cc(OC2CN(C(=O)N3N=CC[C@H]3c3cc(F)cc(F)c3)C2)c(F)cn1 [compound 143, (S)-1-(4-((1-(5-(3,5-difluorophenyl)-4,5-dihydro-1H-pyrazole-1-carbonyl)azetidin-3-yl)oxy)-5-fluoropyridin-2-yl)-2-methyl-1H-imidazole-5-carbonitrile]	0.1 to 100
Cc1c(NC(=O)C2CC2)nn(C)c1-c1cc(OC2CN(C(=O)N3N=CC[C@H]3c3cc(F)cc(F)c3)C2)c(F)cn1 [compound 144, (S)—N-(5-(4-((1-(5-(3,5-difluorophenyl)-4,5-dihydro-1H-pyrazole-1-carbonyl)azetidin-3-yl)oxy)-5-fluoropyridin-2-yl)-1,4-dimethyl-1H-pyrazol-3-yl)cyclopropanecarboxamide]	0.1 to 100
Cc1c(NCC(N)=O)nn(C)c1-c1cc(OC2CN(C(=O)N3N=CC[C@H]3c3cc(F)cc(F)c3)C2)c(F)cn1 [compound 145, (S)-2-((5-(4-((1-(5-(3,5-difluorophenyl)-4,5-dihydro-1H-pyrazole-1-carbonyl)azetidin-3-yl)oxy)-5-fluoropyridin-2-yl)-1,4-dimethyl-1H-pyrazol-3-yl)amino)acetamide]	0.1 to 100
Cn1ccnc1-c1cc(OC2CN(C(=O)N3N=CC[C@H]3c3cc(F)cc(F)c3)C2)c(F)cn1 [compound 146, (S)-(5-(3,5-difluorophenyl)-4,5-dihydro-1H-pyrazol-1-yl)(3-((5-fluoro-2-(1-methyl-1H-imidazol-2-yl)pyridin-4-yl)oxy)azetidin-1-yl)methanone]	0.1 to 100
Cc1ccc(C)n1-c1cc(OC2CN(C(=O)N3N=CC[C@H]3c3cc(F)cc(F)c3)C2)c(F)cn1 [compound 147, (S)-(5-(3,5-difluorophenyl)-4,5-dihydro-1H-pyrazol-1-yl)(3-((2-(2,5-dimethyl-1H-pyrrol-1-yl)-5-fluoropyridin-4-yl)oxy)azetidin-1-yl)methanone]	0.1 to 100
Cc1nn(-c2cc(OC3CN(C(=O)N4N=CC[C@H]4c4cc(F)cc(F)c4)C3)c(F)cn2)c(C)c1CO [compound 148, (S)-(5-(3,5-difluorophenyl)-4,5-dihydro-1H-pyrazol-1-yl)(3-((5-fluoro-2-(4-(hydroxymethyl)-3,5-dimethyl-1H-pyrazol-1-yl)pyridin-4-yl)oxy)azetidin-1-yl)methanone]	0.1 to 100
Cn1ncc(C(N)=O)c1-c1ccc(F)c(OC2CN(C(=O)N3N=CC[C@H]3c3cc(F)cc(F)c3)C2)n1 [compound 149, (S)-5-(6-((1-(5-(3,5-difluorophenyl)-4,5-dihydro-1H-pyrazole-1-carbonyl)azetidin-3-yl)oxy)-5-fluoropyridin-2-yl)-1-methyl-1H-pyrazole-4-carboxamide]	0.1 to 100
Cc1c(C#N)nn(C)c1-c1cc(OC2CN(C(=O)N3N=CC[C@H]3c3cc(F)cc(F)c3)C2)c(F)cn1 [compound 150, (S)-5-(4-((1-(5-(3,5-difluorophenyl)-4,5-dihydro-1H-pyrazole-1-carbonyl)azetidin-3-yl)oxy)-5-fluoropyridin-2-yl)-1,4-dimethyl-1H-pyrazole-3-carbonitrile]	0.1 to 100
Cc1nn(-c2cc(OC3CN(C(=O)N4N=CC[C@H]4c4cc(F)cc(F)c4)C3)c(F)cn2)c(C)c1C#N [compound 151, (S)-1-(4-((1-(5-(3,5-difluorophenyl)-4,5-dihydro-1H-pyrazole-1-carbonyl)azetidin-3-yl)oxy)-5-fluoropyridin-2-yl)-3,5-dimethyl-1H-pyrazole-4-carbonitrile]	0.1 to 100
Cc1nc(C)n(-c2cc(OC3CN(C(=O)N4N=CC[C@H]4c4cc(F)cc(F)c4)C3)c(F)cn2)c1C [compound 152, (S)-(5-(3,5-difluorophenyl)-4,5-dihydro-1H-pyrazol-1-yl)(3-((5-fluoro-2-(2,4,5-trimethyl-11H-imidazol-1-yl)pyridin-4-yl)oxy)azetidin-1-yl)methanone]	0.1 to 100
